Measured values: US20120016009A1, “Optimized Methods For Delivery Of DSRNA Targeting The PCSK9 Gene” (priority 2008, published 2012)
In the oligonucleotide strings, read from the 5' end, every base follows the letter of its sugar. An asterisk marks phosphorothioate; unmarked linkages are phosphodiester. Other units and linkages are bracketed, terminal groups are in braces. A string of capitals states the bases alone. d = 2'-deoxy (DNA); r = 2'-OH (RNA)

System: PCSK9 mRNA
Assay: PCSK9 siRNA screening in HepG2 cells (lipofectamine 2000 transfection, PCSK9 mRNA by Quantigene, normalized to GAP-DH)
Assay type: cell-based, human
Settings: for Mean percent remaining mRNA transcript at siRNA concentration/in cell type 3 nM/HepG2: 3 nM siRNA; for Mean percent remaining mRNA transcript at siRNA concentration/in cell type 30 nM/HepG2: 30 nM siRNA; for Mean percent remaining mRNA transcript at siRNA concentration/in cell type 100 nM/HepG2: 100 nM siRNA
How it was run: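 HepG2 cells, grown in MEM with 10% fetal calf serum, antibiotics, non-essential amino acids and sodium pyruvate at 37° C. and 5% CO2, were plated at 2.0×10^4 cells/well in 96-well plates and transfected directly with siRNA using lipofectamine 2000. After 24 hours, cells were lysed and PCSK9 mRNA was measured by Quantigene and normalized to GAP-DH mRNA.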

| Substance | IC50 | Mean percent remaining mRNA transcript at siRNA concentration/in cell type 3 nM/HepG2 | Mean percent remaining mRNA transcript at siRNA concentration/in cell type 30 nM/HepG2 | Mean percent remaining mRNA transcript at siRNA concentration/in cell type 100 nM/HepG2 |
| --- | --- | --- | --- | --- |
| AD-9610: PCSK9 siRNA (sense rArGrGrUrGrUrArUrCrUrCrCrUrArGrArCrArCdT*dT; antisense rGrUrGrUrCrUrArGrGrArGrArUrArCrArCrCrUdT*dT) | 0.04 nM | 34% | 36% | – |
| AD-9611: PCSK9 siRNA (sense rUrCrCrUrArGrArCrArCrCrArGrCrArUrArCrAdT*dT; antisense rUrGrUrArUrGrCrUrGrGrUrGrUrCrUrArGrGrAdT*dT) | – | – | 48% | – |
| AD-9612: PCSK9 siRNA (sense rArCrCrArCrCrGrGrGrArArArUrCrGrArGrGrGdT*dT; antisense rCrCrCrUrCrGrArUrUrUrCrCrCrGrGrUrGrGrUdT*dT) | – | – | 122% | – |
| AD-9614: PCSK9 siRNA (sense rGrGrCrArArCrUrUrCrCrGrGrGrArCrGrArUrGdT*dT; antisense rCrArUrCrGrUrCrCrCrGrGrArArGrUrUrGrCrCdT*dT) | – | – | 100% | – |
| AD-9615: PCSK9 siRNA (sense rUrUrCrCrGrGrGrArCrGrArUrGrCrCrUrGrCrCdT*dT; antisense rGrGrCrArGrGrCrArUrCrGrUrCrCrCrGrGrArAdT*dT) | – | – | 116% | – |
| AD-9616: PCSK9 siRNA (sense rArGrCrArCrCrUrGrCrUrUrUrGrUrGrUrCrArCdT*dT; antisense rGrUrGrArCrArCrArArArGrCrArGrGrUrGrCrUdT*dT) | – | – | 84% | 74% |
| AD-9617: PCSK9 siRNA (sense rArUrGrCrUrGrUrCrUrGrCrCrGrArGrCrCrGrGdT*dT; antisense rCrCrGrGrCrUrCrGrGrCrArGrArCrArGrCrArUdT*dT) | – | – | 111% | – |
| AD-9618: PCSK9 siRNA (sense rGrArGrCrArUrGrGrArArUrCrCrCrGrGrCrCrCdT*dT; antisense rGrGrGrCrCrGrGrGrArUrUrCrCrArUrGrCrUrCdT*dT) | – | – | 90% | – |
| AD-9619: PCSK9 siRNA (sense rUrCrArGrGrArGrCrCrGrGrGrArCrGrUrCrArGdT*dT; antisense rCrUrGrArCrGrUrCrCrCrGrGrCrUrCrCrUrGrAdT*dT) | – | – | 61% | 42% |
| AD-9620: PCSK9 siRNA (sense rCrArGrGrArGrCrCrGrGrGrArCrGrUrCrArGrCdT*dT; antisense rGrCrUrGrArCrGrUrCrCrCrGrGrCrUrCrCrUrGdT*dT) | – | – | 77% | 44% |
| AD-9621: PCSK9 siRNA (sense rUrCrUrGrGrArUrGrGrCrArUrCrUrArGrCrCrAdT*dT; antisense rUrGrGrCrUrArGrArUrGrCrCrArUrCrCrArGrAdT*dT) | – | – | 77% | – |
| AD-9622: PCSK9 siRNA (sense rCrUrGrUrCrCrCrUrCrCrUrUrGrArGrCrArCrCdT*dT; antisense rGrGrUrGrCrUrCrArArGrGrArGrGrGrArCrArGdT*dT) | – | – | 94% | – |
| AD-9623: PCSK9 siRNA (sense rGrUrCrArGrCrUrCrCrArGrGrCrGrGrUrCrCrUdT*dT; antisense rArGrGrArCrCrGrCrCrUrGrGrArGrCrUrGrArCdT*dT) | – | – | 66% | 43% |
| AD-9624: PCSK9 siRNA (sense rCrGrUrCrArGrCrUrCrCrArGrGrCrGrGrUrCrCdT*dT; antisense rGrGrArCrCrGrCrCrUrGrGrArGrCrUrGrArCrGdT*dT) | – | – | 94% | – |
| AD-9625: PCSK9 siRNA (sense rCrUrGrGrUrGrGrArGrGrUrGrUrArUrCrUrCrCdT*dT; antisense rGrGrArGrArUrArCrArCrCrUrCrCrArCrCrArGdT*dT) | – | – | 88% | 58% |
| AD-9626: PCSK9 siRNA (sense rUrGrArArGrArUrArUrUrUrArUrUrCrUrGrGrGdT*dT; antisense rCrCrCrArGrArArUrArArArUrArUrCrUrUrCrAdT*dT) | – | 68% | 97% | – |
| AD-9627: PCSK9 siRNA (sense rArGrArGrArCrUrGrArUrCrCrArCrUrUrCrUrCdT*dT; antisense rGrArGrArArGrUrGrGrArUrCrArGrUrCrUrCrUdT*dT) | – | – | 69% | – |
| AD-9628: PCSK9 siRNA (sense rUrUrCrUrCrUrGrCrCrArArArGrArUrGrUrCrAdT*dT; antisense rUrGrArCrArUrCrUrUrUrGrGrCrArGrArGrArAdT*dT) | – | – | 141% | – |
| AD-9629: PCSK9 siRNA (sense rUrCrUrGrGrGrUrUrUrUrGrUrArGrCrArUrUrUdT*dT; antisense rArArArUrGrCrUrArCrArArArArCrCrCrArGrAdT*dT) | – | 24% | 23% | – |
| AD-9630: PCSK9 siRNA (sense rGrGrGrCrArGrGrGrUrCrArUrGrGrUrCrArCrCdT*dT; antisense rGrGrUrGrArCrCrArUrGrArCrCrCrUrGrCrCrCdT*dT) | – | – | 82% | – |
| AD-9631: PCSK9 siRNA (sense rCrUrCrUrGrCrCrArArArGrArUrGrUrCrArUrCdT*dT; antisense rGrArUrGrArCrArUrCrUrUrUrGrGrCrArGrArGdT*dT) | – | – | 80% | – |
| AD-9632: PCSK9 siRNA (sense rCrArArCrUrUrUrGrGrCrCrGrCrUrGrUrGrUrGdT*dT; antisense rCrArCrArCrArGrCrGrGrCrCrArArArGrUrUrGdT*dT) | – | – | 34% | – |
| AD-9633: PCSK9 siRNA (sense rUrGrGrUrCrArCrCrGrCrUrGrCrCrGrGrCrArAdT*dT; antisense rUrUrGrCrCrGrGrCrArGrCrGrGrUrGrArCrCrAdT*dT) | – | – | 75% | 56% |
| AD-9634: PCSK9 siRNA (sense rCrUrCrUrGrUrUrGrCrCrUrUrUrUrUrArCrArGdT*dT; antisense rCrUrGrUrArArArArArGrGrCrArArCrArGrArGdT*dT) | – | 30% | 29% | – |
| AD-9635: PCSK9 siRNA (sense rGrUrCrUrGrCrCrGrArGrCrCrGrGrArGrCrUrCdT*dT; antisense rGrArGrCrUrCrCrGrGrCrUrCrGrGrCrArGrArCdT*dT) | – | – | 90% | 73% |
| AD-9636: PCSK9 siRNA (sense rCrArUrArCrArGrArGrUrGrArCrCrArCrCrGrGdT*dT; antisense rCrCrGrGrUrGrGrUrCrArCrUrCrUrGrUrArUrGdT*dT) | 2.1 nM | 41% | 42% | – |
